What was measured:
[1] = test system: HEK293 cells cotransfected with the FOP control vector; assay: HEK293 FOP assay (control reporter with non-functional TCF elements); assay type: cell-based; conditions: 16 hours
Procedure: In a parallel approach, HEK293 cells were cotransfected with the FOP control vector and pcDNA3. The FOP vector is identical to the TOP construct, but it contains instead of functional TCF elements a randomized, non-functional sequence. For this transfection a stable transfected cell line was generated as well, based on selection with Geneticin (1 mg/ml).
(§1) In preparation of the assay, the two cell lines were plated 24 h before beginning the test at 10000 cells per well in a 384 micro titre plate (MTP) in 30 μl growth medium. […] The recombinant human Wnt-3a was thereby applied between 2500 and 5 ng/ml in two-fold dilution steps.
(§2) Selective inhibitory activity for small molecules on the wildtype Wnt pathway was determined after parallel incubation of both (TOP and FOP) HEK293 reporter cell lines with a compound dilution series from 50 μM to 15 nM in steps of 3.16-fold dilutions in CAFTY buffer (130 mM sodium chloride, 5 mM potassium chloride, 20 mM HEPES, 1 mM magnesium chloride, 5 mM sodium bicarbonate, pH 7.4) containing 2 mM Ca^2+ and 0.01% BSA.
(§3) The compounds were thereby serially prediluted in 100% DMSO and thereafter 50 fold into the CAFTY compound dilution buffer (described above).

TNKS2 = target: T1, TNKS2 (Homo sapiens, UniProt Q9H2K2); assay: TNKS2 Assay B (auto-parsylation, [3H]-NAD+ SPA); assay type: biochemical; conditions: 6 nM TNKS2, auto-parsylation, over night at room temperature
T1 construct: purchased BPS Bioscience, San Diego, USA 80572 (TNKS2 Histone Ribosylation Assay Kit)
T1 sequence (Q9H2K2 1-1166): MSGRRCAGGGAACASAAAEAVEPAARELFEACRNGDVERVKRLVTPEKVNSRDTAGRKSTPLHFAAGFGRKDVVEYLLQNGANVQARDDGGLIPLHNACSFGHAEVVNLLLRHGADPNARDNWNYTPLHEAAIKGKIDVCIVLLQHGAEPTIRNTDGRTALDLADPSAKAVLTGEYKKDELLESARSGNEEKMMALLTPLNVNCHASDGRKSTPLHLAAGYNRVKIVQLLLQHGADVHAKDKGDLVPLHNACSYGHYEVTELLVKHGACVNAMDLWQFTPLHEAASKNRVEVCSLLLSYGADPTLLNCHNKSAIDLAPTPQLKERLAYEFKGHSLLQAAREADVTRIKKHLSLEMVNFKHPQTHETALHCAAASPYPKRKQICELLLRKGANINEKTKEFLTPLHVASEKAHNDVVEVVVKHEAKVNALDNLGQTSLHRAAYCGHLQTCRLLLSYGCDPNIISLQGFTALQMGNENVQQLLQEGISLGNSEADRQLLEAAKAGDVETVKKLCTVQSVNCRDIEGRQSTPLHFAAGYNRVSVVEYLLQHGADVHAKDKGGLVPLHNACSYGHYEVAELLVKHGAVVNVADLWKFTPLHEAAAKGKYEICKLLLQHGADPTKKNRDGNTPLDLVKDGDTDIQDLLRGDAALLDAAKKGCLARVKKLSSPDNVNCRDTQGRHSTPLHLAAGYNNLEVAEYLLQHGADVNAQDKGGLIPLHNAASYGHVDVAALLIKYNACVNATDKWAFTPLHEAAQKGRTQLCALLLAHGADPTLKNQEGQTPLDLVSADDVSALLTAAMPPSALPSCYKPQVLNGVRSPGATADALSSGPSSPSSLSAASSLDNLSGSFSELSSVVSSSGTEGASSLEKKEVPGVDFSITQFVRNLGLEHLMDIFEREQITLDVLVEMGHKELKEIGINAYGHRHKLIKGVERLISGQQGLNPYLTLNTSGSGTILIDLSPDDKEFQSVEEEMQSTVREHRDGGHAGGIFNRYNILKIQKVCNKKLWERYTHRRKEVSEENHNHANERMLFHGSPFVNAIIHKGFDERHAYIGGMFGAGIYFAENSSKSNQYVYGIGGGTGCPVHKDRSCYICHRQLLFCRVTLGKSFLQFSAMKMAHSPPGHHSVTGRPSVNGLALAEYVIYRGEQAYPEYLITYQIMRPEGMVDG
Procedure: The potency of selected compounds according to the invention was assessed applying a modified in vitro inhibition assay. Here, the TNKS2 catalyzed NAD^+-dependent ribosylation of the enzyme itself (auto-parsylation) was detected using [^3H]-NAD^+ as substrate and applying the scintillation proximity assay (SPA) method to detect tritium-labeled, parsylated TNKS2. The intensity of the readout signal is proportional to the incorporated [^3H]-NAD^+. Inhibition of TNKS2 leads to a decreased incorporation of [^3H]-NAD^+ and consequently to a lower readout signal intensity. The concentration of a test compound which inhibits the enzyme activity by 50% (corresponds to half of the normed readout signal intensity) is reported as IC50.
Protocol Auto-Parsylation Assay
The assay was conducted in a 96 well MTP format with the identical TNKS2 enzyme sample and NAD^+ sample as in the histone ribosylation assay with the following modifications: TNKS2 enzyme sample was diluted with a modified assay buffer (50 mM MES pH 7.0, 1 mM DTT, 0.01% Triton X-100) to a final concentration of 6 nM TNKS2 and 10×NAD^+ solution was diluted with the modified assay buffer (s. above) to a final 0.445×NAD^+ solution doped with 100 Bq/μl [^3H]-NAD^+[Catalog #NET443H050UC, Perkin Elmer, Waltham, Mass., USA]. Substrate solution (10 μl) was incubated with different test compound concentrations (2.5 μl in 10% DMSO in modified assay buffer) or control (2.5 μl 10% DMSO in modified assay buffer only) and enzyme (10 μl) over night at room temperature. Incorporated tritium was measured after addition of 50 ul SPA beads (1 mg/ml) [Catalog #RPNQ0095 20 mg/ml, Perkin Elmer, Waltham, Mass., USA; diluted 1:10 with Dulbecco's phosphate buffered saline, PBS Catalog #D8537, Sigma-Aldrich, Steinheim, Germany] and detection of the photon emission with a beta count plate reader [Wallac MicroBeta®, Perkin Elmer, Waltham, Mass., USA].

[2] = test system: wildtype Wnt signaling cascade; assay: HEK293 TOP assay (Super TopFlash luciferase reporter, Wnt-3a stimulated); assay type: cell-based; conditions: HEK293 TOP reporter cells, Wnt3a at EC50, 16 hours
Description: 7.1 Measurement of the Inhibitory Activity of Selected Compounds on the Wildtype Wnt Signaling Cascade: HEK293 TOP/FOP Assay
In order to discover and characterize small molecules which inhibit the wildtype Wnt pathway, a cellular reporter assay was employed. The corresponding assay cell was generated by transfection of the mammalian cell line HEK293 (ATCC, #CRL-1573) with the Super TopFlash vector (Morin, Science 275, 1997, 1787-1790; Molenaar et al., Cell 86 (3), 1996, 391-399). The HEK293 cell line is cultivated at 37° C. and 5% CO2 in DMEM (Life Technologies, #41965-039), supplemented with 2 mM glutamine, 20 mM HEPES, 1.4 mM pyruvate, 0.15% Na-bicarbonate and 10% foetal bovine serum (GIBCO, #10270). Stable transfectants were generated by selection with 300 μg/ml Hygromycin.
as §1, §2, §3

Row | IC50 (TNKS2) [µM] | IC50 ([2]; Homo sapiens, HEK293, 16 h) [µM] | SMILES | IC50 ([1]; Homo sapiens) [µM] | IC50 [1] [µM] | IC50 [2] [µM]
1 | 0.64 | 0.2 | O=C(N[C@H]1CC[C@@]2(CCN(c3ccccc3Cl)C2=O)CC1)c1n[nH]c2cccnc12 [Example 272, N-[(trans)-2-(2-chlorophenyl)-1-oxo-2-azaspiro[4.5]dec-8-yl]-1H-pyrazolo[4,3-b]pyridine-3-carboxamide] | ≥ 50 |  | 
2 | 6 | 0.49 | Cn1nc(C(=O)N[C@H]2CC[C@@]3(CCN(c4ccc(F)cc4Cl)C3=O)CC2)c2ccccc21 [Example 247, N-[(trans)-2-(2-chloro-4-fluorophenyl)-1-oxo-2-azaspiro[4.5]dec-8-yl]-1-methyl-1H-indazole-3-carboxamide] | 13 |  | 
3 | 0.026 | 0.015 | O=C(N[C@H]1CC[C@@]2(CCN(c3ccc(OC(F)(F)F)cc3Cl)C2=O)CC1)c1cnn2cccnc12 [Example 354, N-{(trans)-2-[2-chloro-4-(trifluoromethoxy)phenyl]-1-oxo-2-azaspiro[4.5]dec-8-yl}pyrazolo[1,5-a]pyrimidine-3-carboxamide] | 19 |  | 
4 | 4 | 2.4 | O=C(N[C@H]1CC[C@@]2(CCN(c3ccc(F)cc3Cl)C2=O)CC1)c1nnc2cccnn12 [Example 347, N-[(trans)-2-(2-chloro-4-fluorophenyl)-1-oxo-2-azaspiro[4.5]dec-8-yl][1,2,4]triazolo[4,3-b]pyridazine-3-carboxamide] | ≥ 50 |  | 
5 |  | 0.21 | CNC(=O)c1[nH]cnc1C(=O)N[C@H]1CC[C@H](C(=O)Nc2ccc(F)cc2Cl)CC1(F)F (stereo in doubt) [Example 34, N^4-{(trans)-4-[(2-chloro-4-fluorophenyl)carbamoyl]-2,2-difluorocyclohexyl}-N^5-methyl-1H-imidazole-4,5-dicarboxamide] | ≥ 50 |  | 
6 |  | 0.44 | CNC(=O)c1[nH]cnc1C(=O)NC1CCC(C(=O)Nc2ccc(F)cc2Cl)CC1C (centres unmarked) [Example 38, N^4-{4-[(2-chloro-4-fluorophenyl)carbamoyl]-2-methylcyclohexyl}-N^5-methyl-1H-imidazole-4,5-dicarboxamide] | ≥ 50 |  | 
7 |  | 0.057 | CN1CCN(c2ccn3ncc(C(=O)N[C@H]4CC[C@@]5(CCN(c6ccc(F)cc6Cl)C5=O)CC4)c3n2)CC1 [Example 229, N-[(trans)-2-(2-chloro-4-fluorophenyl)-1-oxo-2-azaspiro[4.5]dec-8-yl]-5-(4-methylpiperazin-1-yl)pyrazolo[1,5-a]pyrimidine-3-carboxamide] | ≥ 50 |  | 
8 |  | 0.14 | O=C(N[C@H]1CC[C@H](C(=O)Nc2c(F)cc(F)cc2Cl)CC1)c1cnn2cccnc12 [Example 131, N-{trans-4-[(2-chloro-4,6-difluorophenyl)carbamoyl]cyclohexyl}pyrazolo[1,5-a]pyrimidine-3-carboxamide] | ≥ 50 |  | 
9 |  | 0.17 | Cc1cc(O)n2ncc(C(=O)N[C@H]3CC[C@@]4(CCN(c5ccc(F)cc5Cl)C4=O)CC3)c2n1 [Example 364, N-[(trans)-2-(2-chloro-4-fluorophenyl)-1-oxo-2-azaspiro[4.5]dec-8-yl]-7-hydroxy-5-methylpyrazolo[1,5-a]pyrimidine-3-carboxamide] | ≥ 50 |  | 
10 |  | 0.03 | CNC(=O)c1[nH]cnc1C(=O)N[C@H]1CC[C@]2(CC1)CC(O)N(c1ccc(F)cc1Cl)C2=O (mixture of isomers) [Example 307, N^4-[(trans)-2-(2-chloro-4-fluorophenyl)-3-hydroxy-1-oxo-2-azaspiro[4.5]dec-8-yl]-N^5-methyl-1H-imidazole-4,5-dicarboxamide (mixture of isomers at C3)] | ≥ 50 |  | 
11 |  | 1.6 | CNC(=O)c1nc[nH]c1C(=O)N[C@H]1CC[C@H](C(=O)Nc2snc(C)c2Cl)CC1 [Example 175, N^5-{trans-4-[(4-chloro-3-methyl-1,2-thiazol-5-yl)carbamoyl]cyclohexyl}-N^4-methyl-1H-imidazole-4,5-dicarboxamide] | 1.3 |  | 
12 |  |  | CC1CC2(CCC(NC(=O)c3cnn4cccnc34)CC2)C(=O)N1c1ccc(F)cc1Cl (single isomer, unassigned; enantiomer 1) [Example 356, N-[(trans)-2-(2-chloro-4-fluorophenyl)-3-methyl-1-oxo-2-azaspiro[4.5]dec-8-yl]pyrazolo[1,5-a]pyrimidine-3-carboxamide (enantiomer 1)] |  | ≥ 50 | 0.026
13 |  |  | CNC(=O)c1[nH]cnc1C(=O)NC1CCC(C(=O)Nc2ccc(F)cc2Cl)CC1C (centres unmarked) [Example 40, N^4-{4-[(2-chloro-4-fluorophenyl)carbamoyl]-2-methylcyclohexyl}-N^5-methyl-1H-imidazole-4,5-dicarboxamide] |  | ≥ 50 | 0.46
14 |  |  | CC1CC2(CCC(NC(=O)c3cnn4cccnc34)CC2)C(=O)N1c1ccc(F)cc1Cl (single isomer, unassigned; enantiomer 2) [Example 357, N-[(trans)-2-(2-chloro-4-fluorophenyl)-3-methyl-1-oxo-2-azaspiro[4.5]dec-8-yl]pyrazolo[1,5-a]pyrimidine-3-carboxamide (enantiomer 2)] |  | ≥ 50 | 0.0053
